Article PMC6017928, “Informing Efforts to Develop Nitroreductase for Amine Production” (Molecules : A Journal of Synthetic Chemistry and Natural …, 2018)

Key:
MsPnbA = molecular target: T1, MsPnbA (Mycolicibacterium smegmatis, UniProt A0R6D0); assay: NADH oxidation, initial rates in microtiter plate; Michaelis-Menten fit; assay type: biochemical; conditions: NADH co-substrate, 25 °C; only normalised kcat/KM used in text
T1 construct: gene nfnB; C-terminal poly-His tag; E. coli BL21(DE3), pET-28a; Ni-NTA, FMN-reconstituted

StNfsB = molecular target: T2, StNfsB (Salmonella enterica, UniProt P15888); assay: NADH oxidation at […] nm; Michaelis-Menten fit; assay type: biochemical; conditions: 0.5 mM NADH, 25 °C
T2 construct: gene nfsB; full length, 217 residues; untagged purification (ammonium sulfate, DEAE, Sephacryl); E. coli BL21(DE3), pET-28a; FMN-reconstituted; homodimer
T2 sequence (P15888 1-217): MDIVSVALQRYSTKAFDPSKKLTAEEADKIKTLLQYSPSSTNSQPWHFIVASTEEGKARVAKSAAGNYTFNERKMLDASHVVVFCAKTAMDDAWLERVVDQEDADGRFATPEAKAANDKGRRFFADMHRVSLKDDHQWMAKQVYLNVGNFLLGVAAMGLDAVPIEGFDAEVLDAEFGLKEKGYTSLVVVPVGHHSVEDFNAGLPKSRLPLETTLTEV

T1 sequence (A0R6D0 whole entry): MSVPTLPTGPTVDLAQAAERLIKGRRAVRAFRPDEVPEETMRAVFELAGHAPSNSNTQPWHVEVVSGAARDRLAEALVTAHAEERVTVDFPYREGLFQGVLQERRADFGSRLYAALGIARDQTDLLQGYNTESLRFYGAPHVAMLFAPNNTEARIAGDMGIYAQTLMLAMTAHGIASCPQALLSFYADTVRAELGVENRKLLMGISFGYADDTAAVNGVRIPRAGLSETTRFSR

SMILES: O=[N+]([O-])c1ccccc1 [compound 1, nitrobenzene]
- NADH oxidation, initial rates in microtiter plate; Michaelis-Menten fit (MsPnbA): dividing by the rate measured for the unsubstituted parent compound: nitrobenzene
- NADH oxidation at 370 nm; Michaelis-Menten fit (StNfsB): dividing by the rate measured for the unsubstituted parent compound: nitrobenzene
